The record followed here is patent publication US20230365563A1, “QUINAZOLINE COMPOUND AND APPLICATION THEREOF” (SHANGHAI PHARMACEUTICALS HOLDING CO., LTD., priority 2020, published 2023).

One test deals with T1, KRAS-G12D and SOS1 (Homo sapiens, UniProt P01116, G12D).
T1 construct: purchased
Briefly: Inhibition of KRAS-G12D/SOS1 binding (Cisbio binding kit, 665/615 ratio), Effect Embodiment A. The settings on record: read-out: GTP-KRAS-G12D:SOS1 IC50. The procedure, abridged:
(§1)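 Test compounds were serially diluted 3-fold from the storage solution over 11 points and dispensed in duplicate wells at 1% final DMSO.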

The target of a further test is T2, KRAS_WT and SOS1 (Homo sapiens, UniProt P01116).
T2 construct: purchased
T2 sequence (P01116 1-188 isoform P01116-2): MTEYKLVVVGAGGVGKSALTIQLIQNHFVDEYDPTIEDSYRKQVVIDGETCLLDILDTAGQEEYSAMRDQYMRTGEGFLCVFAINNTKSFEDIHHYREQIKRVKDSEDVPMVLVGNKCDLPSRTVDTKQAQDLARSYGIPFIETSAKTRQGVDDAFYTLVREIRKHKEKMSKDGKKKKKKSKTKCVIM
As to the kind of experiment: Inhibition of KRAS_WT/SOS1 binding (Cisbio binding kit, 665/615 ratio), Effect Embodiment C. The settings on record: read-out: GTP-KRAS-WT:SOS1 IC50. Summed up: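 Compounds tested as 3-fold, 11-point dilutions in duplicate at 1% DMSO final against the KRAS_WT/SOS1 binding system. IC50 derived by nonlinear regression fit.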

Another test concerns the target T3, KRAS_G12D and cRAF (Homo sapiens, UniProt P01116, G12D).
T3 construct: purchased
As to the kind of experiment: Inhibition of KRAS_G12D/cRAF binding (Cisbio binding kit, 665/615 ratio), Effect Embodiment B. The settings on record: read-out: GTP-KRAS-G12D:CRAF IC50. Summed up:
as §1

Molecules are shown by their SMILES. Structures can show the parent of a compound that is named as a salt.

T3 sequence (P01116 1-188 isoform P01116-2 G12D): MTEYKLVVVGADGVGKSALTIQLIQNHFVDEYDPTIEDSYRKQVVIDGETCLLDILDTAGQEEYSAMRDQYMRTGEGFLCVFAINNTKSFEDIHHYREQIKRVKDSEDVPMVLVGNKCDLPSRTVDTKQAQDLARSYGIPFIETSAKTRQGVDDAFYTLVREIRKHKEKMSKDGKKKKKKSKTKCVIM
T1 sequence (P01116 1-188 isoform P01116-2 G12D): as above

For `CN(C)CCCCCOc1nc(N2CC3CCC(C2)N3)c2cc(Cl)c(-c3cc(O)cc4ccccc34)c(F)c2n1` (single isomer, unassigned) [Compound 98, 4-((S or R)-4-((1R,5S)-3,8-diazabicyclo[3.2.1]octan-3-yl)-6-chloro-2-((5-(dimethylamino)pentyl)oxy)-8-fluoroquinazolin-7-yl)naphthalen-2-ol carboxylate], the IC50 at KRAS-G12D and SOS1 stood at 95.3 nM; at KRAS_WT and SOS1 it was 7700 nM; at KRAS_G12D and cRAF it was 477 nM.

Take `CN1CCN(CCCOc2nc(N3CC4CCC(C3)N4)c3cc(Cl)c(-c4cc(O)cc5ccccc45)c(F)c3n2)CC1` (single isomer, unassigned) [Compound 99, 4-((S or R)-4-((1R,5S)-3,8-diazabicyclo[3.2.1]octan-3-yl)-6-chloro-8-fluoro-2-(3-(4-methylpiperazin-1-yl)propoxy)quinazolin-7-yl)naphthalen-2-ol dihydrochloride]: the IC50 on KRAS-G12D and SOS1 worked out at 52.2 nM; on KRAS_WT and SOS1, 2600 nM; at KRAS_G12D and cRAF, 168 nM.

On to `CN1CC[C@H]1COc1nc(N2CC3CCC(C2)N3)c2cc(Cl)c(-c3cc(O)cc4ccccc34)c(F)c2n1` (single isomer, unassigned) [Compound 100, 4-((S or R)-4-((1R,5S)-3,8-diazabicyclo[3.2.1]octan-3-yl)-6-chloro-8-fluoro-2-(S)-1-methylazetidin-2-yl)methoxy)quinazolin-7-yl)naphthalen-2-ol bitrifluoroacetate], for which the IC50 on KRAS-G12D and SOS1 was determined as 19.1 nM; at KRAS_WT and SOS1, 504 nM; at KRAS_G12D and cRAF, 53.7 nM.

In the case of `CC(C)NCCCOc1nc(N2CC3CCC(C2)N3)c2cc(Cl)c(-c3cc(O)cc4ccccc34)c(F)c2n1` (single isomer, unassigned) [Compound 101, 4-((S or R)-4-((1R,5S)-3,8-diazabicyclo[3.2.1]octan-3-yl)-6-chloro-8-fluoro-2-(3-(isopropylamino)propoxy)quinazolin-7-yl)naphthalen-2-ol dihydrochloride], the IC50 on KRAS-G12D and SOS1 stood at 31.7 nM; on KRAS_WT and SOS1 it was 2470 nM; on KRAS_G12D and cRAF, 182 nM.

In the case of `CC(C)(COc1nc(N2CC3CCC(C2)N3)c2cc(Cl)c(-c3cc(O)cc4ccccc34)c(F)c2n1)CN1CCCC1` (single isomer, unassigned) [Compound 102, 4-((S or R)-4-((1R,5S)-3,8-diazabicyclo[3.2.1]octan-3-yl)-6-chloro-2-(2,2-dimethyl-3-(pyrrolidin-1-yl)propoxy)-8-fluoroquinazolin-7-yl)naphthalen-2-ol dihydrochloride], the IC50 at KRAS-G12D and SOS1 was determined as 19.8 nM; at KRAS_WT and SOS1 it was 1100 nM; on KRAS_G12D and cRAF it was 39 nM.

As to `CN(CCCCN1CCNCC1)CCCOc1nc(N2C[C@H]3CC[C@@H](C2)N3)c2cc(Cl)c(-c3cc(O)cc4ccccc34)c(F)c2n1` (single isomer, unassigned) [Compound 103, (S or R)-4-(4-((1R,5S)-3,8-diazabicyclo[3.2.1]octan-3-yl)-6-chloro-8-fluoro-2-(3-(methyl(4-(piperazin-1-yl)butyl)amino)propoxy)quinazolin-7-yl)naphthalen-2-ol tetrahydrochloride], the IC50 on KRAS-G12D and SOS1 worked out at 19.4 nM; at KRAS_WT and SOS1 it was 1260 nM; at KRAS_G12D and cRAF it was 120 nM.

Regarding `CN(C)C(C)(C)COc1nc(N2CC3CCC(C2)N3)c2cc(Cl)c(-c3cc(O)cc4ccccc34)c(F)c2n1` (single isomer, unassigned) [Compound 104, 4-((S or R)-4-((1R,5S)-3,8-diazabicyclo[3.2.1]octan-3-yl)-6-chloro-2-(2-(dimethylamino)-2-methylpropoxy)-8-fluoroquinazolin-7-yl)naphthalen-2-ol dihydrochloride], the half-maximal inhibitory concentration (IC50) at KRAS-G12D and SOS1 is 40.9 nM; on KRAS_WT and SOS1 it was greater than 10000 nM; on KRAS_G12D and cRAF it was 248 nM.

Turning to `CCNCCCOc1nc(N2CC3CCC(C2)N3)c2cc(Cl)c(-c3cc(O)cc4ccccc34)c(F)c2n1` (single isomer, unassigned) [Compound 105, dihydrochloride], the concentration for half-maximal inhibition (IC50) at KRAS-G12D and SOS1 amounted to 22.4 nM; at KRAS_WT and SOS1 it was 3040 nM; at KRAS_G12D and cRAF, 185 nM.
